Experimental data as given in patent publication US20250129045A1, “SMALL MOLECULE PIM AND MTOR KINASE INHIBITOR AND METHODS OF USE THEREOF” (Arizona Board of Regents on Behalf of the University of …, priority 2022, published 2025).
“Also recorded” adds a separate entry of the source.

How the values were obtained:
[1] = system: PANC1 pancreatic cancer cells; assay: Growth inhibition of PANC1 pancreatic cancer cells; type: cell-based
Protocol: (§1) Cell growth assay: Tumor cells were seeded into 48 well plates (1000 cells/well) and treated with varied agents. The Incucyte real-time imaging system (Incucyte) was used to measure cell proliferation using a non-label cell monolayer confluence approach. The images were captured every 12 h. Graphs were generated using an integrated confluence metric as an alternative for cell numbers. At the end of the study cell growth was visualized by crystal violet staining.
(§2) Because of ease of growth, PANC1 pancreatic cancer cells were used to test the activity of derivatives of VBT-5445 (FIG. 14). […] Using a doxycycline inducible Pim kinase vector in these tumor cells, this inhibition of phosphorylation was proportional to the level of Pim in these cells (FIG. 9). […] Inhibition of mTORC1 is known to stimulate the feedback activation of mTORC2 leading to AKT phosphorylation. […] The effect of these compounds on mTORC1 and 2 was still evident in PC3-LN4 cells that contained a knockout (KO) using CRISPR/CAS9 of either TSC2 or DEPDC5 (FIG. 12, lanes 4-9). TSC2 KO activated the Rheb GTPase while DEPDC5 KO activated the RAG GTPase both of which stimulate mTORC1 activity. Thus, GRG compounds were capable of inhibiting mTORC1 activity even when this kinase was highly activated.

mTORC = assay: Phosphorylation of mTORC substrates in PANC1 cells (Western blot); type: cell-based; conditions: overnight incubation, FIG. 19
Protocol: (§3) Immunoblotting: Western blots were performed as described previously. Briefly, protein lysates (30 μg) were subjected to SDS-PAGE and transferred to nitrocellulose membranes. After blocking with 5% milk in TBST buffer for 30 min at room temperature, the membranes were incubated overnight at 4° C. with the Indicated primary antibody in 3% BSA in TBST. Specific proteins were detected with the corresponding HRP conjugated secondary antibody using enhanced chemiluminescence (GE Lifesciences, Piscataway, NJ).
as §2

Acetyl CoA carboxylase = Acetyl CoA carboxylase phosphorylation in LNCaP cells (Western blot); type: cell-based; conditions: LNCaP prostate cancer cell line
Protocol: LNCaP cells were treated in a 6 well plate with GRG-1-35 for the indicated times. Cells were scrapped and protein extracts subjected to SDS-PAGE and Western blotted with the antibodies shown.

PC3-LN4 cells [2] = assay: P-body (PB) number in PC3-LN4 GFP-EDC3 cells; type: cell-based, human; conditions: 6 h
Protocol: (§4) FIGS. 7A-7I show inhibition of VBT5445 (VBT) on Pim1 and EDC3 binding and phosphorylation. FIG. 7A: In vitro co-precipitation (Co-PPT) assay was performed with recombinant EDC3 and biotinylated Pim1 using Streptavidin beads with increasing concentrations of the Pim inhibitor VBT5445 (VBT). FIG. 7B: Kinase assays were performed with recombinant EDC3 and Pim1 with increasing concentrations of VBT. FIG. 7C: Cell lysates from PC3-LN4 cells cultured with DMSO, 10 μM VBT, 3 μM AZD5363 (AKTi) and the combination for 6 hrs were subjected to western blotting (WB). […] WBs were performed using the indicated antibodies. FIG. 7E: PC3-LN4 cells were seeded into 48 well plate and incubated with either DMSO, VBT, AZD5363 or the combination, for 4.5 days. A real-time imaging system (IncuCyte™) was used to measure cell proliferation using a non-label cell monolayer confluence approach. FIG. 7F-7H: GFP image in PC3 LN4 GFP EDC3 expressing cells treated with PIMi: VBT (5 μM) and VBT (5 μM)+AZD5363 (3 μM) for 6 hrs.
To measure PB numbers, PC3-LN4 PCa cells containing a CRISPR/Cas total knock-out of EDC3 were stably transduced with GFP-EDC3. When localized in PBs, GFP spots could be quantified. PBs were quantified at the University of Colorado Center for Drug Discovery using an Opera Phenix Plus high content screening system (PerkinElmer) Perkin Elmer G3 robotic system after drug treatment. Assays were carried out in quadruplicate and the mean number of PBs per cell and cell area calculated. An example of this assay is shown using […] buffered saline (HBSS) to induce PB formation.
Immunofluorescence: Immunofluorescence (IF) staining was performed on PC3-LN4 cells stably expressing EDC3-GFP. 1×10^4 cells were seeded in each chamber of an 8 well chamber slide (Nunc Lab-Tek II Chamber Slide System, Life Technologies) and cultured for 48 h. After attaching to the chamber slides cells were treated with DMSO, VB-5445 ([…]), AZD5363 (3 μM), or the combination for 6 h. Cells were then fixed with 4% paraformaldehyde in PBS for 15 min and subsequently permeabilized with 0.2% Triton X-100 in PBS. Cells were stained with diluted DAPI (1:4000) in 1% nor-mal goat serum in PBS. Cells were mounted with Prolong Gold Antifade mounting medium (Molecular Probes).

[3] = Tolerability by gavage in mice; type: in vivo; conditions: 30 mg/kg by gavage in combination with AZD5363 40 mg/kg
Text: Maximum Tolerated Dose and Side Effect Profile. […] To obtain the maximum tolerated dose (MTD), the dose will be increased by 50% over the previous one at each ensuing treatment consisting of 3 mice given daily for 5 days. Mice will be observed for fur ruffling and behavior changes. Blood will be drawn, and the WBC count and blood chemistry will be determined to evaluate bone marrow, liver, and kidney toxicity. Together with pharmacokinetic profiling, this analysis will help determine the best dose and frequency of administration for this molecule.

Pim1 and EDC3 binding = Pim1 and EDC3 binding (Homo sapiens, UniProt P11309); assay: In vitro co-precipitation / co-immunoprecipitation of EDC3 with Pim1; conditions: VBT-5445 at concentrations higher than 1 μM
Pim1 and EDC3 binding, sequence (P11309 whole entry): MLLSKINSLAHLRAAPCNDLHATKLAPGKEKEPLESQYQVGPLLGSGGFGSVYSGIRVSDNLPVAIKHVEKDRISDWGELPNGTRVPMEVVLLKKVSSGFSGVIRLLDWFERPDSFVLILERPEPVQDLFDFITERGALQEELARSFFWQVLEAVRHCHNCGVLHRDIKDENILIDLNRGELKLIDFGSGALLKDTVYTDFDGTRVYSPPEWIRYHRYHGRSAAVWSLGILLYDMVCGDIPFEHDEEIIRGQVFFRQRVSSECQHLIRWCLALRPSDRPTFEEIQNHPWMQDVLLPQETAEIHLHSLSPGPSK
Protocol: as §4

Pim1 [4] = molecular target: T1, Pim1 (Homo sapiens, UniProt P11309); assay: Surface plasmon resonance (SPR) binding of VBT5445 to Pim1; conditions: 500 nM PIM447 vs DMSO
T1 sequence (P11309 whole entry): as above
Protocol: as §4
A virtual screening effort was mounted to find chemicals that interact outside of ATP binding site of Pim screening over 100,000 compounds followed by testing the top 303 by Surface Plasmon Resonance (SPR). Synthesis of the most likely candidate was achieved by the Arizona Center for Drug Discovery at the University of Arizona. […]

PC3-LN4 cells [5] = assay: Cell growth assay (IncuCyte) in PC3-LN4 prostate cancer cells; type: cell-based, human; conditions: for prostate cancer (PC3-LN4) growth, in combination with AKT/PI3K inhibitor: combination with AZD5363 or BKM120
Protocol: as §4, §1

Pim1 [6] = molecular target: T1, Pim1; assay: Kinase assay with purified Pim1 and EDC3 (EDC3 S161 phosphorylation); type: biochemical; conditions: concentration of 1 μM
Protocol: as §4
Computer screening followed by surface plasmon resonance (SPR) yielded a lead compound VBT-5445 that can interact with the Pim-1 protein kinase. Enhancer of mRNA Decapping 3 (EDC3) is a substrate of the Pim kinase that regulates the decapping of messenger RNA, and its activity is modulated by Pim mediated phosphorylation. […]

[7] = system: T-cell acute lymphoblastic leukemia cell line DU528; assay: Cell viability (XTT) assay in T-ALL cells; type: cell-based; conditions: 72 h
Protocol: Cell viability (XTT) assay: T-ALL cells were seeded into 96 well plates at a density of 20,000 cells per well and treated with VBT-5445 for 72 h, using DMSO as control. Cell viability was measured using XTT cell proliferation assay (Trevigen Cat #4891-025-K) following the manufacturer's protocol. Briefly, XTT reagent was added to cell culture after the treatment and incubated for 4 h at 37° C. and 5% CO2. The absorbance of the colored formazan product was measured at 450 nm.

PC3-LN4 cells [8] = assay: Western blotting of PC3-LN4 cell lysates; type: cell-based, human
Protocol: as §4, with “FIG.” for “FIGS. 7A-7I show inhibition of VBT5445 (VBT) on Pim1 and EDC3 binding and phosphorylation. FIG.”
Extracts were subjected to Western blotting with the indicated antibodies.
as §3

SMILES | growth inhibitory activity against PANC1 pancreatic cancer cells [1] | block of phosphorylation of mTORC substrates (AKT, 4E-BP1, S6) (mTORC) | phosphorylation of acetyl CoA carboxylase (Acetyl CoA carboxylase) | number of P-bodies, with AKT inhibitor AZD5363 added (PC3-LN4 cells [2]; combination with AZD5363 (3 μM)) | number of P-bodies (PC3-LN4 cells [2]; compound alone) | weight loss or behavior changes [3] | co-immunoprecipitation of EDC3 with Pim (Pim1 and EDC3 binding) | increase of binding to Pim1 when PIM447 was added and bound to the ATP site (Pim1 [4]) | prostate cancer (PC3-LN4) growth, in combination with AKT/PI3K inhibitor (PC3-LN4 cells [5]) | prostate cancer (PC3-LN4) growth, in combination with AKT/PI3K inhibitor (PC3-LN4 cells [5]; listed as VBT) | growth in culture of PC3-LN4 cells (PC3-LN4 cells [5]; compound alone) | inhibition of EDC3 serine 161 phosphorylation by Pim1 (Pim1 [6]) | growth of T-acute lymphoblastic leukemia cells [7] | ITGB1 protein level, combination with AZD5363 (AKTi) (PC3-LN4 cells [8]) | cellular level of Pim kinases (PC3-LN4 cells [8]) | cellular level of c-Myc protein (PC3-LN4 cells [8]) | mTORC1 activity: phosphorylation of the S6 protein (PC3-LN4 cells [8])
O=c1c(CNCc2cc(Cl)ccn2)cc2ccc(Cl)cc2n1CCOc1ccccc1 [GRG-1-35] | most active | block the phosphorylation of mTORC substrates | Induction; also recorded: increased the phosphorylation of acetyl CoA carboxylase | – | – | – | – | – | – | – | – | – | – | – | – | – | –
O=c1c(CNCc2cccnc2)cc2ccc(Cl)cc2n1CCOc1ccccc1 [VBT5445] | – | – | – | further increased these numbers; also recorded: further increase P-body formation | increased PB numbers; also recorded: induces increased numbers of P-bodies | without any weight loss or behavior changes | blocked the ability of Pim1 to coimmunoprecipitate with EDC3 | 3 fold | more active in inhibiting cancer growth | markedly inhibits the growth | markedly inhibits the growth | inhibited EDC3 phosphorylation | inhibited the growth | reduced | decreases the level of all Pim kinases | decrease | blocked mTORC1 activity
